Source: patent EP0390515A1, “Novel adenine derivatives and their use as agents for increasing crop yields” (MITSUBISHI GAS CHEMICAL COMPANY, INC., priority 1989, dated 1990)
Converted amounts (≈) assume the structure as drawn. Read-outs that look alike come from different tables or passages of the source. Blank lines part the entries; values can stand above or below the compound they belong to.

Assays:
[1] = Water solubility; format: physicochemical
Procedure: Water solubility of adenine derivatives of the present invention and representative known cytokinin substances was measured and the results are shown in Table 7. […]

[2] = test system: Rice seeds (var.: Nankin No. 11) leaf section; test: Assay of cytokinin activity by measurement of chlorophyll content (senescence retardation of rice leaf sections); format: cell-based, Rice (var.: Nankin No. 11); details: dark, 30°C, 3 days
Procedure: Rice seeds (var.: Nankin No. 11) were sown in soil mixed with fertilizer in a seed box and raised for about one month in a greenhouse (25°C in the daytime and 15°C in the night).
A leaf section 1 cm long was cut off from the center of the fourth leaf of the seedlings at the sixth leaf stage. Five leaf sections as one group which had been cut off were floated on the surface of an aqueous solution (2 ml) of the candidate compound or benzyl adenine at a given concentration contained in a glass tubular bottle of 32 mm in inner diameter. This was left to stand in the dark at 30°C for 3 days. The leaf sections were taken out and put in a test tube containing 10 ml of 80% ethanol and the glass tube was immersed in a water bath of 80°C for 20 minutes to extract chlorophyll. After cooling, 80% ethanol was added to make up to 10 ml and absorbance at 665 nm was measured. For the untreated group, water was used in place of the candidate solution in all examples.
Senescence retardation was determined according to the degree of chlorophyll retention, that is, calculated using the following formula (in all examples). [formula] • (A) : Absorbance of treated group after 3 days • (B) : Absorbance of untreated group after 3 days • (C) : Absorbance of leaves before treatment.

[3] = test system: glycine (soybean) hypocotyl section; test: Assay for cytokinin activity according to glycine (soybean) hypocotyl section growth test (callus weight); format: cell-based, Soybean (var.: Enrei); details: Miller's medium with 2,4-D, dark, 30°C, about one month
Procedure: Soybean seeds (var.: Enrei) were disinfected with antiformin containing 0.7% effective chlorine for 4 minutes and washed thrice with sterilized water.
Agar (15 ml, 1.6%) was put in a test tube 2.5 cm in diameter. A groove was cut by forceps on the surface of the agar and two soybean seeds treated as above were placed in this groove and kept in the dark at 30°C for 5 days.
In a glass tubular bottle 26 mm in inner diameter was put Miller's medium, to which a given concentration of the candidate compound, benzyladenine or zeatin and […] of 2,4-D were added. The central portion of hypocotyl budding out from the above seeds was cut off to give a section 1 mm thick. Four of the sections as one group were transplanted to the Miller's medium. This was placed in the dark at 30°C for about one month and then the weight of callus formed was measured. For untreated group, the Miller's medium containing 9 mg/l of 2,4-D was used.

[4] = test system: pig weed (Amaranthus caudatus); test: Assay of cytokinin activity to promote synthesis of betacyanin by pig weed cotyledon sections; format: cell-based; details: 27°C, 20 hours, dark
Procedure: Two sheets of filter paper were put double in a plastic container (19 x 28 cm) and were wetted with 60 ml of distilled water. Seeds of pig weed were sown on the filter papers and were germinated by keeping them in the dark at 27°C for 3 days. Seedlings of uniform size were chosen and were cut at the upper part of the hypocotyl and the seed coats were removed. This cotyledon with hypocotyl of 3-4 mm in length was used for assay.
Two sheets of filter paper were put double in a glass tubular bottle 32 mm in inner diameter and 1 ml of 0.0065M potassium phosphate buffer solution (pH: 6.3) containing a given concentration of the candidate compound, benzyladenine or zeatin and 0.5 g/l of tyrosine was added therein and ten of the above cotyledon sections were arranged therein and kept at 27°C for 20 hours in the dark. These ten cotyledon sections were put in a test tube containing 3 ml of distilled water and betacyanin was extracted by repeating thrice freezing and thawing. Absorbance of the solution was measured and the amount of the dye was calculated by the difference between the absorbance at 542 nm and at 620 nm. For the untreated group, 0.0065M potassium phosphate buffer solution (pH: 6.3) containing 0.5 g/l of tyrosine was used.

[5] = 20°C, read-out: Solubility (g/100 g H₂O) (20°C)

solubility [1]: 0.02 mg/mL (≈ 0.0929 mM)
SMILES: c1coc(CNc2ncnc3[nH]cnc23)c1 [Kinetin, reference compound]

solubility [1, 5]: 53 mg/mL (≈ 212 mM)
SMILES: CON(C)CCCCNc1ncnc2nc[nH]c12 [MABD, N⁶-[4-(N-methoxy-N-methylamino)butyl]adenine]
The senescence retardation (%) ([2]; 0.01 mg/l): 1%
The senescence retardation (%) ([2]; 0.1 mg/l): 11%
The senescence retardation (%) ([2]; 1.0 mg/l): 21%
The senescence retardation (%) ([2]; 10 mg/l): 77%
The senescence retardation (%) ([2]; 100 mg/l): 87%
The weight of soybean callus formed ([3]; 0.01 mg/l): 51 mg
The weight of soybean callus formed ([3]; 0.1 mg/l): 152 mg
The weight of soybean callus formed ([3]; 1.0 mg/l): 178 mg
The weight of soybean callus formed ([3]; 10 mg/l): 824 mg
The amount of betacyanin produced (difference between absorbance at 542 nm and 620 nm) ([4]; 0.1 mg/l): 0.044
The amount of betacyanin produced (difference between absorbance at 542 nm and 620 nm) ([4]; 1.0 mg/l): 0.069
The amount of betacyanin produced (difference between absorbance at 542 nm and 620 nm) ([4]; 10 mg/l): 0.127
The amount of betacyanin produced (difference between absorbance at 542 nm and 620 nm) ([4]; 100 mg/l): 0.207

solubility [1, 5]: 136 mg/mL (≈ 576 mM)
SMILES: CON(C)CCCNc1ncnc2nc[nH]c12 [MAPD, N⁶-[3-(N-methoxy-N-methylamino)propyl]adenine]
The senescence retardation (%) ([2]; 0.01 mg/l): 18%
The senescence retardation (%) ([2]; 0.1 mg/l): 50%
The senescence retardation (%) ([2]; 1.0 mg/l): 94%
The senescence retardation (%) ([2]; 10 mg/l): 99%
The senescence retardation (%) ([2]; 100 mg/l): 91%
The weight of soybean callus formed ([3]; 0.01 mg/l): 131 mg
The weight of soybean callus formed ([3]; 0.1 mg/l): 143 mg
The weight of soybean callus formed ([3]; 1.0 mg/l): 841 mg
The weight of soybean callus formed ([3]; 10 mg/l): 677 mg
The amount of betacyanin produced (difference between absorbance at 542 nm and 620 nm) ([4]; 0.1 mg/l): 0.065
The amount of betacyanin produced (difference between absorbance at 542 nm and 620 nm) ([4]; 1.0 mg/l): 0.132
The amount of betacyanin produced (difference between absorbance at 542 nm and 620 nm) ([4]; 10 mg/l): 0.227
The amount of betacyanin produced (difference between absorbance at 542 nm and 620 nm) ([4]; 100 mg/l): 0.236

solubility [1, 5]: 1.4 mg/mL (≈ 6.39 mM)
SMILES: C/C(=C\CNc1ncnc2[nH]cnc12)CO [t-Zeatin, reference compound]
The weight of soybean callus formed ([3]; 0.001 mg/l): 52 mg
The weight of soybean callus formed ([3]; 0.01 mg/l): 382 mg
The weight of soybean callus formed ([3]; 0.1 mg/l): 815 mg
The weight of soybean callus formed ([3]; 1.0 mg/l): 662 mg
The amount of betacyanin produced (difference between absorbance at 542 nm and 620 nm) ([4]; 0.001 mg/l): 0.040
The amount of betacyanin produced (difference between absorbance at 542 nm and 620 nm) ([4]; 0.01 mg/l): 0.062
The amount of betacyanin produced (difference between absorbance at 542 nm and 620 nm) ([4]; 0.1 mg/l): 0.198
The amount of betacyanin produced (difference between absorbance at 542 nm and 620 nm) ([4]; 1.0 mg/l): 0.242
